{"source": "paper PMC10010643", "about": "(Cancer Chemotherapy and Pharmacology, 2023)", "key": {"[1]": {"test": "Urine PK, Part A single oral doses in healthy participants", "format": "in vivo, human", "conditions": "for CL renal: human", "experimental": "A further two cohorts were recruited. […] Each individual participated in one treatment period only, with the exception of the food-effect cohort (cohort A3) in which there were two treatment periods separated by at least 7 days washout. Participants resided at the Clinical Research Unit (CRU) from 1 day ahead of dosing (day − 1) to day 3 and returned for a follow-up visit 5–7 days after their final dose. For all cohorts, doses were administered in the fasted state in the morning of day 1 of Treatment Period 1. In the food-effect cohort, doses were given 30 min after the start of a high-fat breakfast (973 calories total: approximately 150 protein calories, 250 carbohydrate calories, and 500–600 fat calories) on day 1 of Treatment Period 2. For cohorts A1 to A5 in Treatment Period 1, dosing occurred such that one pair (one active and one placebo) were dosed at least 24 h before the remaining participants. Continuation to dose those who remained was at the investigator’s discretion. Escalating doses were administered following satisfactory sponsor and investigator review of the safety and tolerability data (up to 48 h post-final dose) and PK data (up to 24 h post-final dose) from the lower dose levels.\nUrine was collected by spot collection in Part A only before dosing and between 0–6, 6–12, 12–24, and 24–48 h post-dose. Blood and urine aliquots were stored in polypropylene tubes at − 70 °C until bioanalysis.\nNoncompartmental PK analysis was performed on individual plasma and urine concentration data, using Phoenix® WinNonlin® 8.1 software (Certara USA Inc., Princeton NJ). Plasma PK parameter endpoints for Part A included area under the plasma concentration–time curve (AUC) from time 0 to infinity (AUC0–∞), AUC from time 0 to the time of the last quantifiable concentration (AUC0–tlast), maximum observed plasma concentration (Cmax), time of the maximum observed plasma concentration (Tmax), terminal half-life in plasma (t½), apparent total plasma clearance (CL/F), and apparent volume of distribution (Vz/F). Urine PK parameters calculated in Part A included amount of drug excreted in urine (Ae), percentage of dose excreted unchanged in urine (fe) and renal clearance (CLR)."}, "human macrophages": {"test_system": "human macrophages", "design": "method as in PMID 36154172", "conditions": "in vitro; cited from earlier work"}, "[2]": {"conditions": "single dose 5 mg (1 × 5 mg), fasted"}, "[3]": {"conditions": "single dose 20 mg (4 × 5 mg), fasted"}, "[4]": {"conditions": "single dose 50 mg (1 × 50 mg), fasted"}, "[5]": {"conditions": "single dose 50 mg (1 × 50 mg), fed"}, "[6]": {"conditions": "single dose 50 mg (10 × 5 mg), fasted"}, "[7]": {"conditions": "single dose 100 mg (2 × 50 mg), fasted"}, "[8]": {"conditions": "single dose 200 mg (4 × 50 mg), fasted"}, "[9]": {"conditions": "single dose 400 mg (8 × 50 mg), fasted"}}, "note": "Like-named read-outs stand apart in the source and are kept apart here.", "data": [{"smiles": "OC[C@H]1O[C@H](Sc2cncc(Br)c2)[C@H](O)[C@@H](n2cc(-c3cc(F)c(F)c(F)c3)nn2)[C@H]1O", "note": "[GB1211]", "values": [{"measurement": "Geometric mean fe(0–48 h), range across doses", "setting": "[1]; 5–50 mg dose range (5 mg capsule)", "value": "26.8–30.0%"}, {"measurement": "Geometric mean fe(0–48 h), range across doses", "setting": "[1]; 50–400 mg dose range (50 mg capsules; fasted state)", "value": "10.5–18.7%"}, {"measurement": "Renal elimination mechanism", "setting": "[1]; CLR greater than GFR corrected for fu", "value": "undergoes active secretion in the kidney"}, {"measurement": "Glomerular filtration rate corrected for the fraction of unbound GB1211 in plasma", "setting": "[1]; GFR approximately 7.5 L/h, fu 5.34%", "value": "approximately 0.4 L/h"}, {"measurement": "CL renal", "setting": "[1]; urine and plasma, po, single oral dose, read-out: Geometric mean CLR, range across all doses", "value": "30.5 to 44.5", "unit": "mL/min"}, {"measurement": "CL renal", "setting": "[1]; urine, oral, 5 mg, single dose 5 mg (1 × 5 mg), fasted, read-out: CLR, geometric mean (CV%) (converted)", "value": 35.3, "unit": "mL/min"}, {"measurement": "CL renal", "setting": "[1]; urine, oral, 20 mg, single dose 20 mg (4 × 5 mg), fasted, read-out: CLR, geometric mean (CV%) (converted)", "value": 31.7, "unit": "mL/min"}, {"measurement": "CL renal", "setting": "[1]; urine, oral, 50 mg, single dose 50 mg (1 × 50 mg), fasted, read-out: CLR, geometric mean (CV%) (converted)", "value": 37.3, "unit": "mL/min"}, {"measurement": "CL renal", "setting": "[1]; urine, oral, 50 mg, single dose 50 mg (1 × 50 mg), fed, read-out: CLR, geometric mean (CV%) (converted)", "value": 36.7, "unit": "mL/min"}, {"measurement": "CL renal", "setting": "[1]; urine, oral, 50 mg, single dose 50 mg (10 × 5 mg), fasted, read-out: CLR, geometric mean (CV%) (converted)", "value": 32.3, "unit": "mL/min"}, {"measurement": "CL renal", "setting": "[1]; urine, oral, 100 mg, single dose 100 mg (2 × 50 mg), fasted, read-out: CLR, geometric mean (CV%) (converted)", "value": 43.2, "unit": "mL/min"}, {"measurement": "CL renal", "setting": "[1]; urine, oral, 200 mg, single dose 200 mg (4 × 50 mg), fasted, read-out: CLR, geometric mean (CV%) (converted)", "value": 30.5, "unit": "mL/min"}, {"measurement": "CL renal", "setting": "[1]; urine, oral, 400 mg, single dose 400 mg (8 × 50 mg), fasted, read-out: CLR, geometric mean (CV%) (converted)", "value": 44.5, "unit": "mL/min"}, {"measurement": "Ae (0–48 h), geometric mean (CV%)", "setting": "[1]; [2]", "value": "1.43 (27.0) mg"}, {"measurement": "fe (0–48 h), geometric mean (CV%)", "setting": "[1]; [2]", "value": "28.7 (27.0) %"}, {"measurement": "Ae (0–48 h), geometric mean (CV%)", "setting": "[1]; [3]", "value": "6.00 (19.7) mg"}, {"measurement": "fe (0–48 h), geometric mean (CV%)", "setting": "[1]; [3]", "value": "30.0 (19.7) %"}, {"measurement": "Ae (0–48 h), geometric mean (CV%)", "setting": "[1]; [4]", "value": "9.34 (44.1) mg"}, {"measurement": "fe (0–48 h), geometric mean (CV%)", "setting": "[1]; [4]", "value": "18.7 (44.1) %"}, {"measurement": "Ae (0–48 h), geometric mean (CV%)", "setting": "[1]; [5]", "value": "10.9 (33.5) mg"}, {"measurement": "fe (0–48 h), geometric mean (CV%)", "setting": "[1]; [5]", "value": "21.7 (33.5) %"}, {"measurement": "Ae (0–48 h), geometric mean (CV%)", "setting": "[1]; [6]", "value": "13.4 (38.7) mg"}, {"measurement": "fe (0–48 h), geometric mean (CV%)", "setting": "[1]; [6]", "value": "26.8 (38.7) %"}, {"measurement": "Ae (0–48 h), geometric mean (CV%)", "setting": "[1]; [7]", "value": "15.3 (34.8) mg"}, {"measurement": "fe (0–48 h), geometric mean (CV%)", "setting": "[1]; [7]", "value": "15.3 (34.8) %"}, {"measurement": "Ae (0–48 h), geometric mean (CV%)", "setting": "[1]; [8]", "value": "21.0 (28.0) mg"}, {"measurement": "fe (0–48 h), geometric mean (CV%)", "setting": "[1]; [8]", "value": "10.5 (28.0) %"}, {"measurement": "Ae (0–48 h), geometric mean (CV%)", "setting": "[1]; [9]", "value": "50.7 (33.6) mg"}, {"measurement": "fe (0–48 h), geometric mean (CV%)", "setting": "[1]; [9]", "value": "12.7 (33.6) %"}, {"measurement": "Galectin-3 expression on human macrophages", "setting": "human macrophages", "value": "potently inhibited galectin-3 expression"}]}]}
